Here are results for 4 molecules from patent publication US12484575B2, “Mosquito egg cryopreservation” (Sanaria Inc., priority 2019, dated 2025).

The structures appear in SMILES notation.

One series deals with An. gambiae embryos. Conditions: used as permeabilization reagents; cited from earlier work.
In series [1] the test system is An. stephensi SD500 mosquito eggs. The experiment in a line: Hatch rate of An. stephensi eggs after two-step CPA incubation, plunge into LN2 and thawing/dilution. The format is in vivo, Anopheles stephensi. Conditions: for Average ranked score of hatch rates (1 best to 4): thirteen experiments. On the procedure:
(§1) CPA was contained in a polypropylene 19 mm diameter×19 mm deep paint mixing pot (Michaels 10271583) embedded in a custom aluminum block machined to cover a Peltier-cooled block (Torrey Pines Scientific, IC22XT). CPA was equilibrated to temperature for >2 h prior to addition of eggs for the first incubation step at −6.8° C. Temperature was monitored using a digital thermometer with type-T thermocouple probe in a control sample in the block. Several relatively low molecular weight CPAs were evaluated at different concentrations for toxicity by incubation at 0° C. for up to 15 minutes, including: dimethylacetamide, dimethylformamide, dimethyl sulphoxide, ethanol, ethylene glycol, formamide, glycerol, H4-methanol (also referred to herein as “methanol”), D4 (deuterated)-methanol, D4/^13C-methanol, methylacetamide, propanediol, (sourced from SigmaAldrich); combinations in different ratios were also evaluated.

Series [2] concerns Anopheles eggs. Briefly: Evaluation of low molecular weight CPAs and CPA concentrations for toxicity and egg viability. The format is in vivo, Anopheles stephensi. Here is the method:
as §1
Percentages (v/v) of methanol and D4-methanol in water solutions were evaluated at between 50% and 100% aqueous CPA, namely, 50%, 70%, and 90%, and compared to CPA concentrations of 100%.

For series [3] the following is noted: ambient temperatures; cited from earlier work.
In the next series the test system is larvae of An. gambiae. Conditions: used with common methodologies; cited from earlier work.
Series [4] relates to Anopheles eggs. The note with it: 100% methanol, 20 minutes at −11° C., after subsequent cooling and warming/dilution.
Protocol: Control eggs warmed/diluted from −11° C. (“Control”); eggs subsequently cooled in LN2 (“LN2”) before warming/dilution.
Once the first larval hatching was recorded, subsequent experiments recorded the percentage of larval hatch rate (number of larvae×100/number of eggs in the Petri dish) on day-3 post-thaw, and this was used as the measure of survival. In experiments measuring full development, the hatched larvae were fed standard larval food, pupae were harvested and transferred to rearing pans in 300×300×300 mm cages for adult mosquito emergence.
Where [5] appears, read: 100% CPA, compared with 50%, 70%, 90%.

In the case of `CCCCCCC` [heptane], in the series on An. gambiae embryos, the Toxicity to embryos result is “extremely toxic to the embryos”.

With `[2H]OC([2H])([2H])[2H]` [D4-Methanol, D4-methanol], the “Average ranked score of hatch rates (1 best to 4)” value is on record as 2.47 in series [1] (LN2 plunge boiling −196° C.) and 2.20 in series [1] (LN2 plunge chilled −202° C.). Also, the “Hatch rates versus methanol” value in series [1] (coupled with cooling by plunge into chilled LN2) is listed as “marginally improved hatch rates”. In addition, the Viability of eggs entry in the series on Anopheles eggs [2] (setting [5]) was “highest”; in the series with Anopheles eggs [2] (CPA at 50% v/v in water), “a small percentage of viable eggs”. Also, the “Result among the CPAs evaluated” value with Anopheles eggs [2] (comparison of low molecular weight CPAs) is “best results”. In series [3], the “Viscosity increase relative to H4-methanol” value is “approximately 11%”.

As for `CO` [Methanol, methanol], the figures for the “Average ranked score of hatch rates (1 best to 4)” value in series [1] (LN2 plunge boiling −196° C.) and in series [1] (LN2 plunge chilled −202° C.) were 2.87 and 2.27, respectively. Besides, the Viability of eggs entry in the series with Anopheles eggs [2] (setting [5]) is “highest”; in the series with Anopheles eggs [2] (CPA at 50% v/v in water), “a small percentage of viable eggs”. Further, the “Tolerance by and permeation of untreated eggs” value in the series with Anopheles eggs [2] (untreated Anopheles eggs) was “tolerated by, and to permeate, untreated Anopheles eggs”. For the same molecule, the Toxicity to larvae entry in the series with larvae of An. gambiae is “highly toxic”. For the same molecule, the “Proportion of eggs hatched” value in the series with Anopheles eggs [4] turned out to be 15.3±4.3%.

On to `OCCO` [ethylene glycol, reference compound], for which the Toxicity to larvae result in the series with larvae of An. gambiae was “highly toxic”.
